Results as given in patent US8802597B2, “Herbicidal pyrimidines” (E I du Pont de Nemours and Company, priority 2003, dated 2014).

Columns and labels:
Format in all cases: in vivo
[1] = system: Russian thistle (Salsola kali); experiment: Test D pre/postemergence; conditions: scale 0 to 100 (100 = complete control)
Method in brief: (§1)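 Seeds planted and treated preemergence with test chemicals in a non-phytotoxic solvent mixture containing surfactant; postemergence sprays, same formulation, applied concurrently to plants 2 to 18 cm tall (1- to 4-leaf stage). Kept in a controlled growth environment 15 to 25 days, then visually rated against controls on a 0 to 100 scale (0 no effect, 100 complete control).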

[2] = system: wild mustard (Sinapis arvensis); experiment: Test D pre/postemergence; conditions: scale 0 to 100 (100 = complete control)
Method in brief: as §1

[3] = system: common chickweed (Stellaria media); experiment: Test D pre/postemergence; conditions: scale 0 to 100 (100 = complete control)
Method in brief: as §1

[4] = system: wheat (Triticum aestivum); experiment: Test D pre/postemergence; conditions: scale 0 to 100 (100 = complete control)
Method in brief: as §1

[5] = system: pigweed (Amaranthus retroflexus); experiment: Test D pre/postemergence; conditions: scale 0 to 100 (100 = complete control)
Method in brief: as §1

[6] = system: catchweed bedstraw (galium; Galium aparine); experiment: Test D pre/postemergence; conditions: scale 0 to 100 (100 = complete control)
Method in brief: as §1

[7] = system: wild buckwheat (Polygonum convolvulus); experiment: Test D pre/postemergence; conditions: scale 0 to 100 (100 = complete control)
Method in brief: as §1

kochia (Kochia scoparia) = experiment: Test D pre/postemergence; conditions: scale 0 to 100 (100 = complete control)
Method in brief: as §1

[8] = system: lambsquarters (Chenopodium album); experiment: Test D pre/postemergence; conditions: scale 0 to 100 (100 = complete control)
Method in brief: as §1

[9] = system: spanishneedles (Bidens bipinnata); experiment: Test G pre/postemergence; conditions: Preemergence
Method in brief: (§2)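 Seeds or nutlets were planted and treated preemergence with compound formulated in a non-phytotoxic solvent mixture containing surfactant; plants 2 to 18 cm tall (1- to 4-leaf stage) received postemergence sprays of the same formulation. After 12 to 21 days in a greenhouse, injury was rated visually against untreated controls on a 0–100 scale (100 = complete control).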

[10] = system: Russian thistle (Salsola kali); experiment: Test G pre/postemergence; conditions: Preemergence
Method in brief: as §2

[11] = system: common purslane (Portulaca oleracea); experiment: Test G pre/postemergence; conditions: Preemergence
Method in brief: as §2

## CCOC(=O)c1nc(C2CC2)nc(N)c1Cl [Compound 4, ethyl 6-amino-5-chloro-2-cyclopropyl-4-pyrimidinecarboxylate]
[1]; Postemergence, 16 g ai/ha
  Plant response rating, Russian Thistle: 80
[1]; Postemergence, 31 g ai/ha
  Plant response rating, Russian Thistle: 90
[1]; Postemergence, 62 g ai/ha
  Plant response rating, Russian Thistle: 100
[1]; Postemergence, 125 g ai/ha
  Plant response rating, Russian Thistle: 100
[1]; Preemergence, 16 g ai/ha
  Plant response rating, Russian Thistle: 90
[1]; Preemergence, 31 g ai/ha
  Plant response rating, Russian Thistle: 100
[1]; Preemergence, 62 g ai/ha
  Plant response rating, Russian Thistle: 100
[1]; Preemergence, 125 g ai/ha
  Plant response rating, Russian Thistle: 100
[2]; Postemergence, 16 g ai/ha
  Plant response rating, Mustard, Wild: 65
[2]; Postemergence, 31 g ai/ha
  Plant response rating, Mustard, Wild: 65
[2]; Postemergence, 62 g ai/ha
  Plant response rating, Mustard, Wild: 75
[2]; Postemergence, 125 g ai/ha
  Plant response rating, Mustard, Wild: 90
[2]; Preemergence, 16 g ai/ha
  Plant response rating, Mustard, Wild: 65
[2]; Preemergence, 31 g ai/ha
  Plant response rating, Mustard, Wild: 85
[2]; Preemergence, 62 g ai/ha
  Plant response rating, Mustard, Wild: 85
[2]; Preemergence, 125 g ai/ha
  Plant response rating, Mustard, Wild: 85
[3]; Postemergence, 16 g ai/ha
  Plant response rating, Chickweed: 65
[3]; Postemergence, 31 g ai/ha
  Plant response rating, Chickweed: 100
[3]; Postemergence, 62 g ai/ha
  Plant response rating, Chickweed: 100
[3]; Postemergence, 125 g ai/ha
  Plant response rating, Chickweed: 100
[3]; Preemergence, 16 g ai/ha
  Plant response rating, Chickweed: 65
[3]; Preemergence, 31 g ai/ha
  Plant response rating, Chickweed: 70
[3]; Preemergence, 62 g ai/ha
  Plant response rating, Chickweed: 85
[3]; Preemergence, 125 g ai/ha
  Plant response rating, Chickweed: 100
[4]; Postemergence, 16 g ai/ha
  Plant response rating, Wheat: 80
[4]; Postemergence, 31 g ai/ha
  Plant response rating, Wheat: 85
[4]; Postemergence, 62 g ai/ha
  Plant response rating, Wheat: 100
[4]; Postemergence, 125 g ai/ha
  Plant response rating, Wheat: 100
[4]; Preemergence, 31 g ai/ha
  Plant response rating, Wheat: 70
[4]; Preemergence, 62 g ai/ha
  Plant response rating, Wheat: 80
[4]; Preemergence, 125 g ai/ha
  Plant response rating, Wheat: 80
[5]; Postemergence, 16 g ai/ha
  Plant response rating, Pigweed: 85
[5]; Postemergence, 31 g ai/ha
  Plant response rating, Pigweed: 100
[5]; Postemergence, 62 g ai/ha
  Plant response rating, Pigweed: 100
[5]; Postemergence, 125 g ai/ha
  Plant response rating, Pigweed: 100
[5]; Preemergence, 16 g ai/ha
  Plant response rating, Pigweed: 70
[5]; Preemergence, 31 g ai/ha
  Plant response rating, Pigweed: 90
[5]; Preemergence, 62 g ai/ha
  Plant response rating, Pigweed: 100
[5]; Preemergence, 125 g ai/ha
  Plant response rating, Pigweed: 100
[6]; Postemergence, 16 g ai/ha
  Plant response rating, Galium: 100
[6]; Postemergence, 31 g ai/ha
  Plant response rating, Galium: 100
[6]; Postemergence, 62 g ai/ha
  Plant response rating, Galium: 100
[6]; Postemergence, 125 g ai/ha
  Plant response rating, Galium: 100
[6]; Preemergence, 16 g ai/ha
  Plant response rating, Galium: 90
[6]; Preemergence, 31 g ai/ha
  Plant response rating, Galium: 100
[6]; Preemergence, 62 g ai/ha
  Plant response rating, Galium: 100
[6]; Preemergence, 125 g ai/ha
  Plant response rating, Galium: 100
[7]; Postemergence, 16 g ai/ha
  Plant response rating, Buckwheat, Wild: 80
[7]; Postemergence, 31 g ai/ha
  Plant response rating, Buckwheat, Wild: 85
[7]; Postemergence, 62 g ai/ha
  Plant response rating, Buckwheat, Wild: 100
[7]; Postemergence, 125 g ai/ha
  Plant response rating, Buckwheat, Wild: 100
[7]; Preemergence, 16 g ai/ha
  Plant response rating, Buckwheat, Wild: 60
[7]; Preemergence, 31 g ai/ha
  Plant response rating, Buckwheat, Wild: 80
[7]; Preemergence, 62 g ai/ha
  Plant response rating, Buckwheat, Wild: 100
[7]; Preemergence, 125 g ai/ha
  Plant response rating, Buckwheat, Wild: 100
Kochia (Kochia scoparia); Postemergence, 16 g ai/ha
  Plant response rating, Kochia: 85
Kochia (Kochia scoparia); Postemergence, 31 g ai/ha
  Plant response rating, Kochia: 100
Kochia (Kochia scoparia); Postemergence, 62 g ai/ha
  Plant response rating, Kochia: 100
Kochia (Kochia scoparia); Postemergence, 125 g ai/ha
  Plant response rating, Kochia: 100
Kochia (Kochia scoparia); Preemergence, 16 g ai/ha
  Plant response rating, Kochia: 85
Kochia (Kochia scoparia); Preemergence, 31 g ai/ha
  Plant response rating, Kochia: 100
Kochia (Kochia scoparia); Preemergence, 62 g ai/ha
  Plant response rating, Kochia: 100
Kochia (Kochia scoparia); Preemergence, 125 g ai/ha
  Plant response rating, Kochia: 100
[8]; Postemergence, 16 g ai/ha
  Plant response rating, Lambsquarters: 95
[8]; Postemergence, 31 g ai/ha
  Plant response rating, Lambsquarters: 100
[8]; Postemergence, 62 g ai/ha
  Plant response rating, Lambsquarters: 100
[8]; Postemergence, 125 g ai/ha
  Plant response rating, Lambsquarters: 100
[8]; Preemergence, 16 g ai/ha
  Plant response rating, Lambsquarters: 70
[8]; Preemergence, 31 g ai/ha
  Plant response rating, Lambsquarters: 80
[8]; Preemergence, 62 g ai/ha
  Plant response rating, Lambsquarters: 100
[8]; Preemergence, 125 g ai/ha
  Plant response rating, Lambsquarters: 100
[9]; 62 g ai/ha, scale 0-100
  Plant response rating, Spanishneedles: 100
[9]; 125 g ai/ha, scale 0-100
  Plant response rating, Spanishneedles: 100
[9]; 250 g ai/ha, scale 0-100
  Plant response rating, Spanishneedles: 100
[9]; 500 g ai/ha, scale 0 to 100
  Plant response rating, Spanishneedles: 100
[10]; 125 g ai/ha, scale 0-100
  Plant response rating, Russian Thistle: 100
[10]; 250 g ai/ha, scale 0-100
  Plant response rating, Russian Thistle: 100
[10]; 500 g ai/ha, scale 0 to 100
  Plant response rating, Russian Thistle: 100
[11]; 62 g ai/ha, scale 0-100
  Plant response rating, Purslane: 60
[11]; 125 g ai/ha, scale 0-100
  Plant response rating, Purslane: 100
[11]; 250 g ai/ha, scale 0-100
  Plant response rating, Purslane: 100
[11]; 500 g ai/ha, scale 0 to 100
  Plant response rating, Purslane: 100
